# From PMC10693084, “Novel 8-Methoxycoumarin-3-Carboxamides with potent anticancer activity against liver cancer via targeting caspase-3/7 and β-tubulin polymerization” (BMC Chemistry, 2023)
# Experiments:
# HepG2 cells [1] = experiment: Cell cycle analysis by flow cytometry (PI); format: cell-based, human; details: HepG2, 0.9 µM (IC50), 24 h
# Method: Next, our investigations focused on evaluating the effects of compound 5 on the cell cycle of HepG2 cells utilizing flow cytometric analysis. The cells were treated with compound 5 at a concentration corresponding to the IC50 value and the cell cycle distribution was then analyzed, and the results were compared with untreated control cells. […] Conversely, there was a notable increase in the cellular population at the G2/M and pre-G1 phases. […] These findings indicate that compound 5 induces a notable arrest in cell growth during the […] phase. The flow cytometric analysis of HepG2 cells treated with compound 5 provided valuable insights into its effects on the cell cycle distribution. […] The G0/G1 phase is the resting phase, where cells prepare for DNA replication and cell division, while the S phase is where DNA replication occurs. […] This is a critical control point where the cell ensures that DNA replication is complete and free from errors before entering mitosis. […] The most remarkable finding was the dramatic rise in the pre-G1 population upon treatment with compound 5. The pre-G1 phase is associated with cells undergoing apoptosis, which is a programmed cell death process. […] This implies that the treatment with compound 5 leads to the activation of apoptotic pathways, causing the cells to undergo DNA fragmentation and degradation, ultimately leading to cell death. […] G2/M arrest prevents cells from progressing through the cell cycle, while apoptosis eliminates the damaged or aberrant cells. These combined effects may contribute to the compound's potent anti-cancer activity against HepG2 cells.
# The quantification of DNA content in the cell cycle analysis was performed using a FACS Calibur flow cytometer at a wavelength of 488 nm, following the guidelines provided by the manufacturer. […] Following the completion of the treatment, the cells underwent two rounds of washing and were subsequently resuspended in phosphate-buffered saline (PBS). Following the washing step, a volume of 0.7 ml of absolute ethanol was subsequently introduced, and the mixture was incubated at a temperature of -20 °C for a duration of 20 min. Following the washing step, a volume of 500 μl of RNase was introduced, and subsequently, the mixture was incubated for a duration of 30 min. Next, the addition of PI was carried out, followed by a 30-min incubation period, during which exposure to light was carefully avoided.
# β-tubulin = molecular target: T1, β-tubulin (Homo sapiens, UniProt P07437); experiment: β-tubulin polymerization activity (TUB β ELISA, 450 nm) in HepG2 cells; format: cell-based; details: HepG2, 0.9 µM, 24 h
# T1 construct: impact of compound 5 on β-tubulin polymerization activity in HepG2 cells; endogenous in cells; host or cells: HepG2
# Text: Microtubules are widely recognized as a significant target for anti-cancer therapy due to their pivotal involvement in cellular division and the preservation of cellular morphology. The impact of numerous anti-cancer agents is achieved through their ability to disrupt microtubule dynamics. This disruption ultimately results in the deregulation of mitotic spindles, leading to cell cycle arrest in cancer cells and subsequently inducing apoptosis. Toward this end, we further aimed to assess investigated the impact of compound 5 on β-tubulin polymerization activity in HepG2 cells. Thus, HepG2 cells were treated with compound 5 at (0.9 µM) for a duration of 24 h and the activity of β-tubulin polymerization was explored using spectrophotometry at 450 nm. […] These findings indicate that compound 5 interferes with the process of microtubule assembly, thereby disrupting the proper formation of mitotic spindles. […]
# Dulbecco's Modified Eagle Medium (DMEM) (Invitrogen/Life Technologies) containing 10% fetal bovine serum (FBS) (Hyclone), 10 µg/mL of insulin (Sigma), and 1% penicillin–streptomycin was used for culturing the HepG2 cell line. […] This color change was then quantitatively measured using spectrophotometry at a specific wavelength of 450 nm ± 10 nm. […]
# HepG2 cells [2] = experiment: Annexin V-FITC/PI apoptosis screening; format: cell-based, human; details: HepG2, IC50 concentration, 24 h
# Text: Next, we have conducted Annexin V-FITC/PI screening to further investigate the impact of compound 5 on the growth of HepG2 cells and comprehensively analyze programmed cell death. The Annexin V-FITC/PI assay is a widely used method to differentiate between apoptotic and necrotic cells based on their membrane integrity and phospholipid exposure. […] The results from the Annexin V-FITC/PI screening provide crucial insights into the mode of action of compound 5 in inducing cell death in HepG2 cells. Annexin V-FITC is a marker that binds specifically to phosphatidylserine (PS), a phospholipid that becomes externalized on the cell membrane during early apoptosis. Propidium iodide (PI) is a dye that can penetrate cells with compromised membranes, typically found in late-stage apoptosis or necrosis. […] This is important since apoptosis is a highly regulated process, and its induction is a favorable outcome for anti-cancer therapies, as opposed to necrosis, which is often associated with cell death caused by injury or external damage. Overall, these findings from the Annexin V-FITC/PI screening support the ability of compound 5 to induce apoptosis in HepG2 cells and its lack of significant induction of necrosis reinforce its potential as a promising candidate for anti-cancer therapy.
# Apoptosis detection in HepG-2 cells was conducted utilizing the BioVision® annexin‐V‐FITC apoptosis detection kit in accordance with the instructions provided by the manufacturer. The quantification of apoptosis was performed using a FACS Calibur flow cytometer, with a wavelength of 488 nm. In a concise manner, a total of 1–5 × 10^5 cells were obtained through the process of centrifugation. The cells were subsequently exposed to compound 5 at concentrations corresponding to its IC50 value for a duration of 24 h. Following this treatment, the cells were resuspended in a binding buffer solution with a volume of 500 μl. The addition of Annexin-V-FITC and PI was performed. Subsequently, the specimens were subjected to incubation at ambient temperature for a duration of 5 min, while being shielded from light. The analysis of Annexin-V-FITC binding was conducted utilizing a dedicated signal detector.
# T1 sequence (P07437 whole entry): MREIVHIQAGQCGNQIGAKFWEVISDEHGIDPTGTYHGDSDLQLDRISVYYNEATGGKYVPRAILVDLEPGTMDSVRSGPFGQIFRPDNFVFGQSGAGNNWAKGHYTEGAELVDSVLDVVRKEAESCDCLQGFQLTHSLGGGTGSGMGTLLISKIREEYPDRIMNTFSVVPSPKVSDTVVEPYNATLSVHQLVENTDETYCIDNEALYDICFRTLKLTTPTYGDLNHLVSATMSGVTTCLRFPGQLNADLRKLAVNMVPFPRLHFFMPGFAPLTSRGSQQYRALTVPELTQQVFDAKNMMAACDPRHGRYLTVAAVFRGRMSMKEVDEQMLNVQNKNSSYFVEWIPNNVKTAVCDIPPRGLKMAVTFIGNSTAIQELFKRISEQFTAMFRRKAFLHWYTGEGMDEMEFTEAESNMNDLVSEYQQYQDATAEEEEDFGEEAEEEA
# T1 sequence (P68363 whole entry partner): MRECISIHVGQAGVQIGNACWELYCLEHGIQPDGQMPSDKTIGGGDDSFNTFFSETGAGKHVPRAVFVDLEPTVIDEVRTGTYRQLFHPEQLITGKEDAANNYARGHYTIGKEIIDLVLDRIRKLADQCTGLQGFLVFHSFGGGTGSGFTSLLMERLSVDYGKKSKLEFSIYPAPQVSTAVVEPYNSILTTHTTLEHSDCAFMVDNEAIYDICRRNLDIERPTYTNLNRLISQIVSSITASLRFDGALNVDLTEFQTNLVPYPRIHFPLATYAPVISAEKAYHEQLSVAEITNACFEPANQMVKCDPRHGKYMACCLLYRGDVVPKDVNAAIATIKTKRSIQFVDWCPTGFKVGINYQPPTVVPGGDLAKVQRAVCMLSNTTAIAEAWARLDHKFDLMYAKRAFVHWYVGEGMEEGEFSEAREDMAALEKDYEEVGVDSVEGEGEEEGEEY
compound,measurement,setting,value
"COc1ccc(Br)c2cc(C(N)=O)c(=O)oc12 [Compound 5, 5-Bromo-8-methoxycoumarin-3-carboxamide]",percentage of cells in pre-G1 phase,HepG2 cells [1]; untreated 2.08%,45.88%
same,percentage of cells in G2/M phase,HepG2 cells [1]; untreated 15.38%,31.51%
same,percentage of cells in S phase,HepG2 cells [1]; untreated 34.91%,27.4%
same,percentage of cells in G0/G1 phase,HepG2 cells [1]; untreated 49.71%,41.09%
same,reduction in the concentration of β-tubulin polymerization vs untreated HepG2 cells,β-tubulin,threefold
same,fold increase of early apoptosis vs control,HepG2 cells [2],42 fold
same,fold increase of late-stage apoptosis vs control,HepG2 cells [2],100 fold
same,fold increase of necrosis vs untreated,HepG2 cells [2],threefold
same,fold increase of programmed cell death vs untreated,HepG2 cells [2],22 fold
same,percentage of cells in late-stage apoptosis,HepG2 cells [2]; control 0.22%,22.16%
same,percentage of cells undergoing early apoptosis,HepG2 cells [2]; control 0.46%,19.51%
same,percentage of cells undergoing necrosis,HepG2 cells [2]; untreated 1.4%,4.21%
same,total percentage of programmed cell death,HepG2 cells [2]; untreated 2.08%,45.88%
